Assay results: patent publication US20260201006A1, “COACERVATE FORMULATIONS OF CXCR-ACTIVATING PEPTIDES FOR CONTROLLED RELEASE IN OPHTHALMIC AND TOPICAL TREATMENTS” (University of Pittsburgh - Of the Commonwealth System of …, priority 2022, published 2026)
Ends that are not written are not given here.

Legend:
MUC5AC transcripts = assay: Goblet cell study: qRT-PCR for MUC5AC transcripts in HCjE cells; assay type: cell-based, human; details: 200 ng/ml or 2000 ng/ml, relative to vehicle only
Method: (§1) HCjE cells were maintained in complete keratinocyte serum free medium (KSFM; Invitrogen, Carlsbad, CA) in petri dishes coated with type 1 collagen. When the HCjE cells reached 50% confluence, the culture medium was replaced with growth medium (1:1 DMEM/F12:complete KSFM). When cells reached 100% confluence, the cells were fed with stratification medium (DMEM/F12+10% FBS) with or without the CXCL10p peptide (either 200 ng/ml or 2000 ng/ml). Control cells were fed with the medium supplemented with an equivalent volume of the vehicle (PBS) in which the peptide was dissolved. This medium with or without peptide was replaced every other day for 14 days, after which the cells were either stained with periodic acid-Schiff's (PAS) reagent following the standard protocol, or subjected to total RNA isolation, and qRT-PCR for MUC5AC transcripts with TATA-box binding protein (TBP) as the endogenous control.
Control and CXCR3 activating peptide-treated HCjE cells are also examined for expression of MUC5AC transcripts by qRT-PCR.

[1] = test system: environmental dry eye model; assay: Schirmer tear test (STT) in rabbit environmental dry eye model; assay type: in vivo, New Zealand white rabbits; details: rabbits, 21 days treatment
Method: The 22-mer CXCL10p peptide (OH-[…]-NH2; SEQ ID NO: 5) was manufactured by PolyPeptide Inc. (San Diego, CA, USA) and purified to >95% purity as a lyophilized powder. The peptide was delivered in three different formulations. For subconjunctival injection, 3 μg of the peptide was dissolved in 100 μl of sterile PBS for weekly injections. For eye drops, 10 μg of the peptide was dissolved in 50 μl of sterile PBS for twice daily drops (BID). For the slow-release formulation, 10 μg of the peptide was dissolved in 50 μl of coacervate for BID inoculation. The control was 50 μl of sterile PBS applied BID. The coacervate is a heparin and PEAD (1:3.6) mixture with each component at a 10 mg/mL concentration in water. The CXCL10p peptide was added at a 1:10 dilution in PBS to the final concentration.
The environmental dry eye model was used to test the CXCL10p peptide. Female New Zealand white rabbits (8 per group) were used at 125-175 days old (weighing 3-5 kg) at the time of induction. For induction of dry eye, all animals were dosed with atropine sulfate (1%) in both eyes (OU) twice daily (BID) for 2-3 weeks prior to test article administration to induce KCS. In addition, humidity in the animals' housing room was maintained at ~20% throughout the study to promote eye dryness. Non-responder animals were removed from the study at the end of the induction phase. […]

HCjE cells = assay: Goblet cell study: PAS staining of stratified HCjE cells; assay type: cell-based, human; details: 200 ng/ml or 2000 ng/ml, compared to vehicle-treated HCjE cells
Method: as §1
To further examine the effects of the CXCR3 activating peptide on goblet cell functioning in vitro, stratified HCjE cells are treated with 200 ng/ml CXCR3 activating peptide, 2000 ng/ml CXCR3 activating peptide, or vehicle. Cells are then stained with periodic acid-Schiff's (PAS) reagent.

[2] = test system: TNFα mRNA in human conjunctival epithelial (HCjE) cells; assay: TNFα-mediated inflammation in HCjE cells (qRT-PCR); assay type: cell-based
Method: Primary human conjunctival epithelial (HCjE) cells were seeded at 40,000 cells per well in a 96 well flat bottom plate. After overnight adhesion in Keratinocyte-Serum Free Media (cK-SFM), the cells were washed and exposed to starvation media (SFM) for a further 24 hours. At this time the cells were exposed to TNFα (5 ng/ml) in the presence or absence of CXCL10p peptide (200 ng/ml). After 4 hours, the cells were harvested and tested for TNFα mRNA levels with GAPDH mRNA as the control for equalization.

“OH-PESKAIKNLLKAVHKEMSKRSP-NH2 [CXCL10p peptide]” was tested, and the “levels of MUC5AC transcripts” value (MUC5AC transcripts) was “increased levels of MUC5AC transcripts”, the “amount of aqueous tear (STT)” value [1] was “uncorrected” and the “frequency of intense magenta stained cell clusters (goblet cell clusters)” value (HCjE cells) was “increase in the frequency”. For the same substance, the “staining with PAS reagent (proteoglycan content)” value (HCjE cells) was “more intense staining with PAS reagent”, the “reduction of TNFα mRNA levels” value ([2]; HCjE cells, TNFα 5 ng/ml, peptide 200 ng/ml, 4 hours) was “approximately one quarter” and the “TNFα mRNA levels” value ([2]; HCjE challenged with TNFα, concurrent exposure to peptide) was “dampened the TNFα mRNA levels in a reproducible and statistically significant manner”.
